Laboratory results: patent US8163684B2, “Antimicrobials having polyquaternary ammoniums and alcohol-bearing amidoamines and methods for their use” (Abbott Medical Optics Inc., priority 2008, dated 2012)

Key:
S. marcescens [1] = assay: log drop at contact time of 6 hours in lens case with PureVision lens, S. marcescens; assay type: cell-based; settings: Table 2 solution
Protocol: To test the biocidal efficacy of other solutions comprising the synergistic combination of a polyquaternary ammonium compound and an amidoamine having an alcohol group, three (3) solutions were prepared by blending together the components provided in Table 2. […] When utilized, the amidoamine was RAPD and the polyquaternary ammonium compound was polyquaternium-1. Table 2 below provides the ingredients of the contact lens care solutions tested as well as the activity of the solutions against S. marcescens after six hours.

S. marcescens [2] = assay: log drop at contact time of 6 hours in test tube without lenses, S. marcescens; assay type: cell-based
Protocol: To test the biocidal efficacy of other solutions comprising the synergistic combination of a polyquaternary ammonium compound and an amidoamine having an alcohol group, three (3) solutions were prepared by blending together the components provided in Table 2. Approximately three (3) mL was placed into a test tube with S. marcescens. When utilized, the amidoamine was RAPD and the polyquaternary ammonium compound was polyquaternium-1. Table 2 below provides the ingredients of the contact lens care solutions tested as well as the activity of the solutions against S. marcescens after six hours. Further testing was performed to test the biocidal efficacy of other solutions comprising the synergistic combination of a polyquaternary ammonium compound and an amidoamine having an alcohol group. Approximately three (3) mL was placed into a test tube with S. marcescens. When utilized, the amidoamine was RAPD and the polyquaternary ammonium compound was polyquaternium-1. Table 3 below provides the ingredients of the contact lens care solutions tested as well as the activity of the solutions against S. marcescens after six hours.

F. solani = assay: log drop in 6 hours in lens case with PureVision lens, F. solani; assay type: cell-based; settings: for log drop in 6 hours in lens case with PureVision lens, F. solani: sole antimicrobial, Table 1 solution, room temperature
Excerpt: (§1) Approximately three (3) mL of each solution was introduced into a lens case containing a PureVision® soft contact lens. Each contact lens was maintained in this solution at room temperature for about six (6) hours. The amidoamine used was ricinoleamidopropyl dimethylamine (RAPD), an amidoamine with an alcohol group. Table 1 below provides the ingredients of the contact lens care solutions tested as well as the activity of the various solutions against Candida and Fusarium after six hours.

C. albicans = assay: log drop in 6 hours in lens case with PureVision lens, C. albicans; assay type: cell-based, Candida albicans
Excerpt: as §1
(§2) To test the biocidal efficacy of a solution comprising the synergistic combination of a polyquaternary ammonium compound and an amidoamine having an alcohol group, four (4) solutions were prepared by blending together the components provided in Table 4. Approximately three (3) mL of three of the solutions was placed into a test tube with A. polyphaga. When utilized, the amidoamine was RAPD and the polyquaternary ammonium compound was polyquaternium-1. Table 4 below provides the ingredients of the contact lens care solutions tested as well as the activity of the solutions against Acanthamoeba polyphaga after six hours.

Acanthamoeba polyphaga = assay: log drop in 6 hours in test tube, Acanthamoeba polyphaga; assay type: cell-based
Protocol: as §2, with “hours. To test the biocidal efficacy of other solutions comprising the synergistic combination of a polyquaternary ammonium compound and an amidoamine having an alcohol group, three (3) solutions were prepared by blending together the components provided in Table 5. Approximately three (3) mL of two of the solutions was placed into a test tube with A. polyphaga. When utilized, the amidoamine was RAPD and the polyquaternary ammonium compound was polyquaternium-1. Table 5 below provides the ingredients of the contact lens care solutions tested as well as the activity of the solutions against A. polyphaga after six hours.” for “hours.”

[3] = system: trophzoite and cyst-type Acanthamoeba; settings: stated as known; cited from earlier work
Fusarium = settings: stated as known; cited from earlier work
[4] = RAPD as the sole antimicrobial agent, Table 1 solutions
[5] = RAPD 0.0005 % w/w, no CPC, no PQ-1, Table 4 solution

CCCCCC[C@@H](O)C/C=C\CCCCCCCC(=O)NCCCN(C)C [RAPD, ricinoleamidopropyl dimethylamine]
log drop at contact time of 6 hours in lens case with PureVision lens, S. marcescens (S. marcescens [1]; RAPD 0.002 % w/w, no PQ-1): 0.91 log | log drop at contact time of 6 hours in test tube without lenses, S. marcescens (S. marcescens [2]; RAPD 0.0005 % w/w, no PQ-1, Table 3 solution): 0.44 log | log drop at contact time of 6 hours in test tube without lenses, S. marcescens (S. marcescens [2]; RAPD 0.001 % w/w, no PQ-1, Table 3 solution): 1.51 log | log drop at contact time of 6 hours in test tube without lenses, S. marcescens (S. marcescens [2]; RAPD 0.002 % w/w, no PQ-1, Table 2 solution): 1.77 log | log drop in 6 hours in lens case with PureVision lens, F. solani (F. solani; RAPD 0.0002 % w/w): 0.48 log | log drop in 6 hours in lens case with PureVision lens, F. solani (F. solani; RAPD 0.0005 % w/w): 0.37 log | log drop in 6 hours in lens case with PureVision lens, F. solani (F. solani; RAPD 0.001 % w/w): 0.35 log | biocidal activity against Fusarium (in words) (F. solani; [4]): very low biocidal activity | log drop in 6 hours in lens case with PureVision lens, C. albicans (C. albicans; RAPD 0.0002 % w/w, sole antimicrobial, Table 1 solution, room temperature): 0.26 log | log drop in 6 hours in lens case with PureVision lens, C. albicans (C. albicans; [5]): <0.28 log | log drop in 6 hours in lens case with PureVision lens, C. albicans (C. albicans; RAPD 0.0005 % w/w, sole antimicrobial, Table 1 solution, room temperature): 0.33 log | log drop in 6 hours in lens case with PureVision lens, C. albicans (C. albicans; RAPD 0.001 % w/w, sole antimicrobial, Table 1 solution, room temperature): 0.21 log | biocidal activity against Candida (in words) (C. albicans; [4]): very low biocidal activity | log drop in 6 hours in test tube, Acanthamoeba polyphaga (Acanthamoeba polyphaga; [5]): 0.18 log | log drop in 6 hours in test tube, A. polyphaga (Acanthamoeba polyphaga; RAPD 0.002 % w/w, no PQ-1, no CPC, Table 5 solution): 1.90 log

CCCCC(CC)CNC(=N)NC(=N)NCCCCCCNC(=N)NC(=N)NCC(CC)CCCC (stereo not shown) [alexidine]
biocidal activity against trophzoite and cyst-type Acanthamoeba (in words) [3]: very biocidal | biocidal activity against Fusarium (in words) (Fusarium): not very biocidal

poly[(dimethyliminio)-2-butene-1,4-diylchloride (1:1)], a-[4-[tris(2-hydroxyethyl)ammonio]-2-buten-1-yl]-w-[tris(2-hydroxyethyl)ammonio]-chloride [PQ-1]
log drop at contact time of 6 hours in lens case with PureVision lens, S. marcescens (S. marcescens [1]; PQ-1 0.001 % w/w, no RAPD): 1.07 log | log drop at contact time of 6 hours in test tube without lenses, S. marcescens (S. marcescens [2]; PQ-1 0.001 % w/w, no RAPD, citrate/borate solution of Tables 2 and 3): 1.53 log
